Experiment [1] has as its system respiratory epithelial cells. The experiment in a line: Goblet cell differentiation of respiratory epithelial cells upon IL-13 stimulation (PAS and Alcian blue staining). The experiment is classed as cell-based, human. The method, then: After the cell count was determined, cells were plated at the cell density of 10^6 cells/cm^2 on a filter membrane with 0.45-μm pores, being attached to the bottom of a Millicell-HA Culture Plate Insert (Millipore Corp.). At the time of plating, Vitrogen gel (Vitrogen from Celtrix Pharmaceuticals, Inc. was used after gelation) was placed on the filter membrane as a growth-supporting material, and the epithelial cells were placed thereon. The Millicell inserts were placed in a 24-well plate (Falcon) containing a culture medium, which was a 1:1 mixture of Dulbecco's MEM and Ham F12 containing 2% Ultroser G and the antibiotics, penicillin, streptomycin, gentamycin, and amphotericin B. The cells were incubated overnight. Then, cells that had not adhered to the collagen gel were removed, and the remaining cells were cultured while the cell side was in contact with air (air interface) for approximately two weeks (See FIG. 1). The basic procedures of the AI method by which respiratory epithelial cells were cultured were the same as those described in the following reports:
As basically done in the AI method, Vitrogen gel was placed on a filter membrane, and epithelial cells were placed thereon. The IMM method is different from the AI method in the point that the IMM method comprises adding a medium to cover the epithelial cells. […]

The test system of another experiment is mouse pendrin gene. Briefly: Quantitative PCR of the mouse pendrin gene in the lung of the OVA antigen-exposed bronchial hypersensitivity model. Particulars: lung 24 hours after third antigen inhalation. It is filed as in vivo.
The test system of experiment [2] is mouse OVA antigen-exposed bronchial hypersensitivity model. Briefly: Quantitative PCR (ABI 7700) of selected genes using cDNA of the mouse OVA antigen-exposed bronchial hypersensitivity model. It is filed as in vivo. Particulars: OVA-administered group. As to the method: Eighty-eight genes, most of which were recognized as genes whose expression levels were altered in human and mouse, were selected from the genes narrowed down in Section 4. A quantitative PCR assay was carried out with ABI 7700 using cDNA from the human goblet cell differentiation model and using cDNA from the mouse OVA antigen-exposed bronchial hypersensitivity model.
The primers and TaqMan probe used in the assay with ABI 7700 were designed based on the information on the sequence of each gene utilizing Primer Express (PE Biosystems). The 5′ and 3′ ends of the TaqMan probe were labeled with FAM (6-carboxy-fluorescein) and TAMRA (6-carboxy-N,N,N′,N′-tetramethylrhodamine), respectively. The nucleotide sequences of oligonucleotides for the forward primer (F), reverse primer (R), and TaqMan probe (TP) for each gene are shown below. […]
Furthermore, similar quantitative analyses for the β-actin gene and the glyceraldehyde-3-phosphate dehydrogenase (GAPDH) gene as internal standards for correction were carried out to correct the difference of cDNA concentration in a sample. The copy number of the gene of interest was determined by correcting based on the determined copy numbers for the genes. […]

As to “IL-13: human IL-13 (Peprotech, Inc.) added to the medium at 50 ng/mL to stimulate respiratory epithelial cells”, in experiment [1] (AI method, IL-13 50 ng/mL, after 14 days of incubation), the “differentiation into goblet cells (PAS and Alcian blue staining)” value is “differentiated into goblet cells”. Also, the goblet cell differentiation entry in experiment [1] (IMM method) is recorded as “not observed”.
With “ovalbumin [OVA antigen, ovalbumin antigen used for sensitization and inhalation to induce bronchial hypersensitivity in mice]”, the “mouse pendrin gene expression level in the lung versus physiological saline-inhaled mice (quantitative PCR)” value in the experiment on mouse pendrin gene is reported as “about 50 times”. In addition, the “expression levels of the respective genes (quantitative PCR, corrected with β-actin)” value in experiment [2] is recorded as “significant variations”.

The values are drawn from US20050208496A1, “Methods of testing for bronchial asthma or chronic obstructive pulmonary disease” (Genox Research, Inc., priority 2002, published 2005).
